Reference: US11306064B2, “Benzothia(di)azepine compounds and their use as bile acid modulators” (Albireo AB, priority 2018, dated 2022)

Tests used:
Assay type in all cases: cell-based
[1] = system: HepaRG cells; experiment: HepaRG-based assay: 3H-taurocholic acid uptake in differentiated HepaRG cells; details: Homo sapiens, HepaRG, 0.3 μM 3H-taurocholic acid and 7.5 μM cold taurocholic acid, 30 minutes
Experimental: HepaRG-Based Assay Protocol
A cryopreserved vial of differentiated HepaRG cells (Biopredic International HPR116080) was thawed in HepaRG Thawing/Plating/General Purpose Medium (Biopredic International ADD670C) supplemented with 200 mM Glutamax (Gibco 35050061) following the protocol provided by Biopredic International. 70,000 cells per well were seeded in 96-wells plate (Corning CLS3809) in 100 μL of HepaRG Thawing/Plating/General Purpose Medium supplemented with 200 mM Glutamax and incubated at 37° C. in 5% CO2 for 24 hours. Post incubation, the seeding media was replaced by HepaRG Maintenance/Metabolism Medium (Biopredic International ADD620C) and incubated for 6 days, with fresh HepaRG Maintenance/Metabolism Medium replenishment every 48 hours. After 7 days incubation post seeding, incubation media was decanted from the wells and cells were washed two times with 250 μL of William's E Basal Media (Gibco 12551032). After decanting William's E Basal Media each time, plates were tapped against paper towel to ensure maximum removal of residual media.
Incubation mix was prepared by adding test inhibitor dilutions (3-fold serial dilution in DMSO (Sigma D2650)) in William's E media (basal) containing 0.3 μM 3H-taurocholic acid (ARC ART-1368) and 7.5 μM cold taurocholic acid (Sigma T4009) (maintaining 0.2% final DMSO concentration). 50 μl of incubation mix containing test inhibitors was then added to the wells (in duplicate) and the plates were incubated for 30 minutes in 5% CO2 incubator at 37° C. After incubation, the reaction was stopped by keeping the plates on ice water mix for 2-3 minutes and then the incubation mix was aspirated completely from the wells. The wells were washed two times with 250 μL of chilled unlabelled 1 mM taurocholic acid dissolved in HEPES (Gibco 15630080)-buffered (10 mM) HBSS (Gibco 14175079) (pH 7.4). The plates were tapped against a paper towel after every wash to ensure maximum removal of blocking buffer.
(§1) 100 μL of MicroScint-20 (PerkinElmer 6013621) was added to the wells and kept overnight at room temperature before reading the plates in TopCount NXT™ Microplate Scintillation and Luminescence Counter from PerkinElmer under 3H Test protocol (set at 120 seconds reading time per well, with normal plate orientation).
(§2) Preparation of Test Compound Dilutions
(§3) All test compounds were provided in powder form at room temperature. 10 mM DMSO stocks of the test compounds were prepared, aliquoted and stored at −20° C. From the 10 mM DMSO stock of the compounds, a 3-fold serial dilution in DMSO was prepared to get a total of 10 dilutions of the test compounds. 0.5 μL of this dilution in DMSO was added to 250 μL of FBS-free basal media containing 3H-taurocholic acid and cold taurocholic acid to prepare the incubation mixture.

[2] = target: T1, Human LBAT (Homo sapiens, UniProt Q14973); experiment: LBAT (h/m) assay: 3H-taurocholic acid uptake in human LBAT-overexpressing cells; details: 0.3 μM 3H-taurocholic acid and 7.5 μM cold taurocholic acid, 20 minutes, read-out: hLBAT IC50
T1 construct: expressed in transfected cells; kept under Geneticin selection
T1 sequence (Q14973 1-349): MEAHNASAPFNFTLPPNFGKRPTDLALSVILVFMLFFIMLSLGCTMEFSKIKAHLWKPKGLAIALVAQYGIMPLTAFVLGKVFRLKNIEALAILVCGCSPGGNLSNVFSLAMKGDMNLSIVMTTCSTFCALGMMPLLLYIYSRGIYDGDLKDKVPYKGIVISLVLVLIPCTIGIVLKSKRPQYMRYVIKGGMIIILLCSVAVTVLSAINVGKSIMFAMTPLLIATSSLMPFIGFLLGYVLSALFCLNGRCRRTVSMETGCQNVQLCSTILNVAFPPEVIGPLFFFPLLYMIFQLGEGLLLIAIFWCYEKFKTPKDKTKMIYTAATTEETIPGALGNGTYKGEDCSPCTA
Experimental: LBAT (h/m) Assay Protocol
20,000 cells (Human or Mouse LBAT-overexpressing cells) were seeded in 96-wells plate (Corning CLS3809) in 100 μL MEM-alpha medium (Gibco 12571-063) supplemented with 10% FBS (Gibco 10438026) containing Geneticin (Gibco 10131-027) (1 mg/mL) and incubated at 37° C. in 5% CO2 for 24 hours. After incubation, media was decanted from the wells and cells were washed two times with 300 μL of basal MEM-alpha medium (FBS-free). After decanting basal MEM-alpha medium each time, plates were tapped against paper towel to ensure maximum removal of residual media. For human LBAT, incubation mix was prepared by adding test inhibitor dilutions (3-fold serial dilution in DMSO (Sigma D2650), 10 points) in MEM-alpha (without FBS) containing 0.3 μM 3H-taurocholic acid (ARC ART-1368) and 7.5 μM cold taurocholic acid (Sigma T4009) (maintaining 0.2% final DMSO concentration). For mouse LBAT, incubation mix was prepared by adding test inhibitor dilutions (3-fold serial dilution in DMSO, 10 points) in MEM-alpha (without FBS) containing 0.3 μM 3H-taurocholic acid and 25 μM cold taurocholic acid maintaining 0.2% final DMSO concentration).
50 μL of incubation mix containing test inhibitors was then added to the wells (in duplicate) and the plates were incubated for 20 minutes in a CO2 incubator at 37° C. After incubation, the reaction was stopped by keeping the plates on ice water mix for 2-3 minutes and then the incubation mix was aspirated completely from the wells. The wells were washed two times with 250 μL of chilled unlabelled 1 mM taurocholic acid dissolved in HEPES (Gibco 15630080)-buffered (10 mM) HBSS (Gibco 14175079) (pH 7.4). The plates were tapped against a paper towel after every wash to ensure maximum removal of blocking buffer.
as §1, §2, §3

[3] = target: T2, Human ASBT (Homo sapiens, UniProt Q12908); experiment: ASBT (h/m) assay: 3H-taurocholic acid uptake in human ASBT-overexpressing cells; details: 0.25 μM 3H-taurocholic acid and 5 μM cold taurocholic acid, 20 minutes, read-out: hASBT IC50
T2 construct: expressed in transfected cells; kept under Puromycin selection
T2 sequence (Q12908 1-348): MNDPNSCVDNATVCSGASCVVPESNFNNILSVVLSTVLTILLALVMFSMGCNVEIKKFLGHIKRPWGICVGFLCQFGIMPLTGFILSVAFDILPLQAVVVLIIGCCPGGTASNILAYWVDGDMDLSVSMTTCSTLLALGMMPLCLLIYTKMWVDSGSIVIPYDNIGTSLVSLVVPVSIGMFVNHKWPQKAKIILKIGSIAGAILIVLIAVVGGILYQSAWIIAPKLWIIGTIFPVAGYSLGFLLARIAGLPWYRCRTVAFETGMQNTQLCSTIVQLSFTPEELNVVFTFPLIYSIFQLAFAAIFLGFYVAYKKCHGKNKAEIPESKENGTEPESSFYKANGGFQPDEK
Experimental: ASBT (h/m) Assay Protocol
10,000 cells (Human or Mouse ASBT-overexpressing cells) were seeded in 96-wells plate (Corning CLS3809) in 200 μL MEM-alpha medium (Gibco 12571-063) supplemented with 10% FBS (Gibco 10438026) containing Puromycin (Gibco A1113803) (10 μg/mL) and incubated at 37° C. in 5% CO2 for 48 hours. After incubation, media was decanted from the wells and cells were washed two times with 300 μL of basal MEM-alpha medium (FBS-free). After decanting basal MEM-alpha medium each time, plates were tapped against paper towel to ensure maximum removal of residual media. Test inhibitor dilutions (highest test concentration being 10 μM, 3-fold serial dilution, 10 points) prepared in DMSO (Sigma D2650) were added in incubation mix (maintaining 0.2% final DMSO concentration) containing 0.25 μM 3H-taurocholic acid (ARC ART-1368) and 5 μM of cold taurocholic acid (Sigma T4009). 50 μL of incubation mix containing test inhibitors was then added to the wells (in duplicate) and the plates were incubated for 20 minutes in a CO2 incubator at 37° C. After incubation, the reaction was stopped by keeping the plates on ice water mix for 2-3 minutes and then the incubation mix was aspirated completely from the wells. The wells were washed two times with 250 μL of chilled unlabelled 1 mM taurocholic acid dissolved in HEPES (Gibco 15630080)-buffered (10 mM) HBSS (Gibco 14175079) (pH 7.4). The plates were tapped against a paper towel after every wash to ensure maximum removal of blocking buffer.
100 μL of MicroScint-20 (PerkinElmer 6013621) was added to the wells and kept overnight at room temperature before reading the plates in TopCount NXT™ Microplate Scintillation and Luminescence Counter from PerkinElmer under 3H Test protocol (set at 120 seconds reading time per well).
as §2, §3

| SMILES | IC50 [1] [nM] | IC50 [2] [nM] | IC50 [3] [nM] |
| --- | --- | --- | --- |
| CCCCC1(CC)CN(c2ccccc2)c2cc(OC)c(O/C=C/C(=O)O)cc2S(=O)(=O)C1 (stereo not drawn) [Example 13, (E)-3-((3-butyl-3-ethyl-7-methoxy-1,1-dioxido-5-phenyl-2,3,4,5-tetrahydro-1,5-benzothiazepin-8-yl)oxy)acrylic Acid] | 4460 | 991 | 144 |
| CCCCC1(CCCC)CN(c2ccc(N(C)C)cc2)c2cc(SC)c(O/C=C/C(=O)O)cc2S(=O)(=O)C1 [Example 25, (E)-3-((3,3-dibutyl-5-(4-(dimethylamino)phenyl)-7-(methylthio)-1,1-dioxido-2,3,4,5-tetrahydro-1,5-benzothiazepin-8-yl)oxy)acrylic Acid] | 3310 | 351 | 370 |
| CCCCC1(CC)CN(c2ccccc2)c2cc(F)c(O/C=C(\F)C(=O)O)cc2S(=O)(=O)C1 (stereo not drawn) [Example 96, (Z)-3-((3-butyl-3-ethyl-7-fluoro-1,1-dioxido-5-phenyl-2,3,4,5-tetrahydro-1,5-benzothiazepin-8-yl)oxy)-2-fluoroacrylic Acid] | 785 | 231 | 15 |
| CCCCC1(CC)CN(c2ccc(NC(=O)C(C)(C)C)cc2)c2cc(SC)c(O/C=C/C(=O)O)cc2S(=O)(=O)C1 (stereo not drawn) [Example 34, (E)-3-((3-butyl-3-ethyl-7-(methylthio)-1,1-dioxido-5-(4-pivalamidophenyl)-2,3,4,5-tetrahydro-1,5-benzothiazepin-8-yl)oxy)acrylic Acid] | 469 | 76 |  |
| CCCCC1(CCCC)CN(c2ccc(NC(=O)C3CCCC3)cc2)c2cc(SC)c(O/C=C(\F)C(=O)O)cc2S(=O)(=O)C1 [Example 35, (Z)-3-((3,3-dibutyl-5-(4-(cyclopentanecarboxamido)phenyl)-7-(methylthio)-1,1-dioxido-2,3,4,5-tetrahydro-1,5-benzothiazepin-8-yl)oxy)-2-fluoroacrylic Acid] | 590 | 66 |  |
| CCC1(CC)CN(c2ccc(NC(=O)C(C)(C)C)cc2)c2cc(SC)c(O/C=C(\F)C(=O)O)cc2S(=O)(=O)C1 [Example 52, (Z)-3-((3,3-diethyl-7-(methylthio)-1,1-dioxido-5-(4-pivalamidophenyl)-2,3,4,5-tetrahydro-1,5-benzothiazepin-8-yl)oxy)-2-fluoroacrylic Acid] | 191 | 84 |  |
| CCCCC1(CCCC)CN(c2ccc(NC(=O)CC(C)(C)C)cc2)c2cc(SC)c(O/C=C/C(=O)O)cc2S(=O)(=O)C1 [Example 30, (E)-3-((3,3-dibutyl-5-(4-(3,3-dimethylbutanamido)phenyl)-7-(methylthio)-1,1-dioxido-2,3,4,5-tetrahydro-1,5-benzothiazepin-8-yl)oxy)acrylic Acid] | 336 | 107 |  |
| CCCCC1(CCCC)CN(c2ccc(NC(=O)C(C)C)cc2)c2cc(SC)c(O/C=C/C(=O)O)cc2S(=O)(=O)C1 [Example 33, (E)-3-((3,3-dibutyl-5-(4-isobutyramidophenyl)-7-(methylthio)-1,1-dioxido-2,3,4,5-tetrahydro-1,5-benzothiazepin-8-yl)oxy)acrylic Acid] | 691 | 214 |  |
| CCCCOC(=O)Nc1ccc(N2CC(CCCC)(CCCC)CS(=O)(=O)c3cc(O/C=C/C(=O)O)c(SC)cc32)cc1 [Example 29, (E)-3-((5-(4-((butoxycarbonyl)amino)phenyl)-3,3-dibutyl-7-(methylthio)-1,1-dioxido-2,3,4,5-tetrahydro-1,5-benzothiazepin-8-yl)oxy)acrylic Acid] | 666 | 205 |  |
| CCCCC1(CCCC)CN(c2ccc(NCc3ccccc3)cc2)c2cc(SC)c(O/C=C/C(=O)O)cc2S(=O)(=O)C1 [Example 22, (E)-3-((5-(4-(benzylamino)phenyl)-3,3-dibutyl-7-(methylthio)-1,1-dioxido-2,3,4,5-tetrahydro-1,5-benzothiazepin-8-yl)oxy)acrylic Acid] | 2140 | 343 |  |
| CCCC[C@]1(CC)CN(c2ccccc2)c2cc(SC)c(O/C=C/C(=O)O)cc2S(=O)(=O)N1C (single isomer, unassigned) [Example 90] | 1400 | 49 |  |
| CCCCC1(CCCC)CN(c2ccc(NC(=O)C(C)C)cc2)c2cc(SC)c(O/C=C(\F)C(=O)O)cc2S(=O)(=O)C1 [Example 31, (Z)-3-((3,3-dibutyl-5-(4-isobutyramidophenyl)-7-(methylthio)-1,1-dioxido-2,3,4,5-tetrahydro-1,5-benzothiazepin-8-yl)oxy)-2-fluoroacrylic Acid] | 310 | 17 |  |
